Values of other authors, collected in US20200147064A1, “Reduction of Pro-Inflammatory HDL Using a Leukotriene Inhibitor” (Autoimmune Pharma LLC, priority 2017, published 2020).

Test system: leukotriene production
Settings: statement in words, cited from Stock, N S et al., J Med Chem. 2011

CCOc1ccc(-c2ccc(Cn3c(CC(C)(C)C(=O)O)c(SC(C)(C)C)c4cc(OCc5ccc(C)cn5)ccc43)cc2)cn1 [Compound 2-107, 3-[3-tert-butylsulfanyl-1-[4-(6-ethoxy-pyridin-3-yl)-benzyl]-5-(5-methyl-pyridin-2-ylmethoxy)-1H-indol-2-yl]-2,2-dimethyl-propionic acid]
inhibitor of leukotriene production in vivo: potent inhibitor of leukotriene production in vivo
